# Experiment: gradient 5% acetonitrile 3 min, to 50% in 2 min, to 85% in 15 min, held 3 min, 100 µL/min
# Conditions: column: Zorbax Extend-C18 2.1 x 50 mm; eluents: water / acetonitrile, 0.1% formic acid
# Method in brief: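 Standards, all pure, were combined into mixtures of ~100 molecules and run at 100 μL/min on a Zorbax Extend-C18 column (2.1 × 50 mm, 1.8 μm) with water and acetonitrile, each containing 0.1% formic acid. A coupled quadrupole time-of-flight mass spectrometer operated in positive and negative ionization mode. Retention time values come from computationally picked adduct peaks, each inspected manually.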
row,Compound,RP-LC retention time [s]
1,CSc1ccc(-c2nc3cnccn3c2Nc2cccc(C(=O)NCC3CCCO3)c2)cc1 (stereo not drawn),748
2,Cc1ccc(N2CCC(NC(=O)c3ccc(C#N)cc3)C2=O)cc1 (stereo not drawn),798
3,O=C(c1nc2ccccc2s1)N1CCC(COCc2ccccc2)CC1,1150
4,O=C(NCc1ccccc1)C1CCCN(c2nnc3ccc(Cl)cn23)C1 (stereo not drawn),739
5,Cc1ccc(C)c(-c2coc(-c3ccc(NC(=O)C(C)C)cc3)n2)c1,1170
6,O=C(NC1CC1)C1CCN(C(=O)c2ncn3c2COC(c2ccc(F)cc2)C3)CC1 (stereo not drawn),630
7,CCc1nc(C2CCN(C(=O)C3(c4ccc(OC)cc4)CC3)CC2)n[nH]1,551
8,Cc1noc(CNC(=O)C2CCN(C(=O)c3snnc3C)CC2)n1,563
9,O=C(CCn1c(=O)sc2ccccc21)N(Cc1ccccc1)Cc1ccccc1,1040
10,COCC(=O)Nc1ccc(N2CCC(N3CCCCC3)CC2)cc1C(=O)O,654
11,COC(=O)c1cc(Cl)ccc1NC(=O)COc1nc(C)nc2ccccc12,897
12,CCN1C(=O)c2cccnc2Sc2cc(CNC(=O)c3cccc(C#N)c3)ccc21,756
13,O=C(Nc1ccc(Br)cc1F)NC1CCN(c2ccc(F)cc2)C1=O (stereo not drawn),937
14,Cc1[nH]nc(-c2c(C)sc(C)c2S(=O)(=O)N2CCN(c3ccccc3F)CC2)c1C,1010
15,CCc1nc(NCc2cccnc2)ncc1C(=O)O,560
16,CCSc1nnc(NC(=O)CSc2nc3ccccc3o2)s1,832
17,Cn1nc(C(=O)N2CCCC2)c2c1CCN(C(=O)CCC(=O)NCCc1c[nH]c3ccccc13)C2,685
18,O=C(Nc1ccccc1)N1CCC2(CC1)N(C1CCCC1)C(=O)CS2=O (stereo not drawn),692
19,O=C(CSCc1ccccc1)NCC1CCN(C(=O)Oc2ccccc2)CC1,853
20,CC(=O)[C@H]1CC[C@H]2[C@@H]3CCC4=CC(=O)C=C[C@]4(C)[C@H]3C(=O)C[C@]12C,921
21,Cn1c(=O)c2c(ncn2CC(=O)N2CCC(c3nc(C4CCOCC4)no3)CC2)n(C)c1=O,611

row,Compound,RP-LC retention time [s]
1,O=C(Nc1ccccc1)N1CC(Oc2ccc(-c3nc(-c4ccccc4)no3)cc2)C1,1150
2,CC(C)OCCCNC(=O)CN1C(=O)CCn2nc(-c3cn(C)c4ccccc34)cc21,738
3,N#Cc1ccc(C(=O)NC(c2ccccc2)c2nnc(N3CCCCC3)o2)cc1 (stereo not drawn),740
4,Cc1oc(C2CCN(C(=O)C3CCCN(S(=O)(=O)N4CCCC4)C3)CC2)nc1C(=O)N1CCCC1 (stereo not drawn),737
5,CCOc1ccc(-n2c(=O)c3sccc3n(Cc3nc(-c4ccc(C)cc4)no3)c2=O)cc1,1090
6,CN=C(NC#N)NCCSCc1csc(N=C(N)N)n1,616
7,Cc1cccc(CNC(=O)c2ccc3ncnc(N4CCCC4)c3c2)c1,647
8,CO[C@@H]1C=C2CCN(C)[C@@H]2C2c3cc4c(cc3C(=O)O[C@@H]21)OCO4 (stereo partly drawn),604
9,Cc1ccc(N2CCC(NC(=O)Nc3ccc(F)cc3)C2=O)cc1 (stereo not drawn),846
10,CC1CCN(CCCNC(=O)c2nc(CCS(=O)(=O)c3ccc(F)cc3)no2)CC1,634
11,CC(C)(C)C(=O)C(Oc1ccc(Cl)cc1)n1ccnc1 (stereo not drawn),780
12,O=C(Nc1cccc(F)c1)N1CCN(c2cnn3c(C4CC4)nnc3c2)CC1,663
13,CCn1c(=O)c(N2CCCC(C(=O)NCCc3c[nH]c4ccc(OC)cc34)C2)nc2ccccc21 (stereo not drawn),907
14,CCn1nccc1-c1cccc(-c2noc(CNC(=O)c3ccco3)n2)c1,791
15,CCCC(=O)N1CCN(c2nc3ccccc3nc2C(F)(F)F)CC1,1020
16,O=C(NCc1cccnc1)C1CCN(c2ncnc3c2oc2ccccc23)CC1,583
17,Cc1cc(C)c2c(n1)SCC(=O)N2CCCC(=O)NCCCN1CC(C)CC(C)C1 (stereo not drawn),595
18,COCCn1cc(CCNC(=O)Nc2ccc(F)c(Cl)c2)c2cccnc21,783
19,Cc1ccc(C)c(-c2nnc(NC(=O)c3ccc4c(c3)OCCO4)o2)c1,921
20,CCOc1coc(C(=O)NCCc2ccc(Cl)cc2)cc1=O,706
21,Cc1cc(OCC(=O)N[C@@H](CC(C)C)C(=O)O)c2c3c(c(=O)oc2c1)CCC3,822

row,Compound,RP-LC retention time [s]
1,NC(=O)C1CCN(S(=O)(=O)Cc2c(F)cccc2Cl)CC1,649
2,CCOC(=O)C1CCN(C(=O)CCC2CCCN(c3cc(NC4CC4)ncn3)C2)CC1 (stereo not drawn),662
3,CC1CCc2nc(NC(=O)CCS(=O)(=O)Cc3ccccc3)sc2C1 (stereo not drawn),853
4,CCSCC[C@@H](NC(=O)CCc1c(C)c2ccc(O)c(C)c2oc1=O)C(=O)O,680
5,CC(C)c1nnc(-c2ccc(S(=O)(=O)N3CCN(c4ccccn4)CC3)o2)o1,675
6,COc1ccc(-c2noc(-c3nnn4c3COC(c3ccc(Cl)cc3)C4)n2)cc1OC (stereo not drawn),1130
7,COCc1cc2nn(CC(=O)Nc3ccc(OC)c(F)c3)c(=O)n2c(-c2ccccc2)n1,797
8,CC1=C(c2ccc(Cl)cc2)S(=O)(=O)N=C1N1CCCN(C(=O)c2ccoc2)CC1,825
9,CCOc1nc2ccccc2nc1N1CCCC(C(=O)Nc2ccc(F)cc2)C1 (stereo not drawn),1190
10,CCCN1C(=O)COc2ccc(-c3noc(CNC(=O)c4ccc(C)cc4)n3)cc21,930
11,Cc1cc(C)c2c(N3CCSCC3)nc(C(=O)N3CCN(CC(C)C)CC3)nc2n1,580
12,CCN1C(=O)C(C(=O)Nc2cccc(C)c2)C2CC1(C)Oc1ccccc12 (stereo not drawn),1060
13,Cc1ccc(-c2noc(C3CCCN3S(=O)(=O)c3c(C)c(C)cc(C)c3C)n2)cc1 (stereo not drawn),788
14,COc1ccc(-c2noc(-c3ccc(NC(=O)c4ccc(Br)o4)cc3)n2)cc1,1190
15,CC1CC(=O)N(CC(=O)Nc2cccc([N+](=O)[O-])c2)c2ccccc2S1 (stereo not drawn),843
16,COc1ccc(-c2noc(-c3nc(-c4ccc(OC)c(OC)c4)no3)n2)cc1OC,1080
17,Cc1cccc(OCC(=O)N2C[C@@H](F)C[C@H]2C(=O)N2CCc3ccccc32)c1,878
18,Cc1cc(=O)n(CC(=O)Nc2ccc(C)c(C)c2)c(N2CCOCC2)n1,697
19,COc1ccc(NC(=O)N2C[C@@H]3C[C@H](NS(C)(=O)=O)[C@H]2C3)c(C)c1,652

# The remaining lines, values ahead:
row,RP-LC retention time [s],Compound
1,732,Cc1ccccc1NC(=O)N1CCC(c2nc(C(=O)N3CCCC3)c(C)o2)CC1
2,1180,Cc1ccc(S(=O)(=O)N2CCC(C)CC2)cc1-c1nnc(-c2ccccc2)o1
3,955,Cc1ccc(C)c(N2CCN(c3ccnc(SCC(=O)Nc4ccc(C)c(F)c4)n3)CC2)c1
4,750,CCC(=O)N1CCc2sc(C(=O)NCc3ccc(F)cc3)cc2C1
5,768,Cc1ccc(C)c(NC(=O)C2CC(=O)N(c3ccc4c(c3)CCN4C(=O)C3CC3)C2)c1 (stereo not drawn)
6,887,CN(C)c1ccc(-c2nc3cnccn3c2Nc2cccc(C(F)(F)F)c2)cc1
7,954,Cc1ccc(-n2c(N3CCCC(C(=O)NCc4ccccc4C)C3)nc3ccsc3c2=O)cc1 (stereo not drawn)
8,850,O=C(Cc1ccc(Cl)cc1)Nc1cc(-c2ccccn2)no1
9,607,CCN1CCN(C(=O)c2ccc(-c3ccc4c(c3)CCN4C(C)=O)cc2)CC1
10,716,COc1ccc(Cc2nc(-c3ccc4c(c3)ncn4CCC(=O)N3CCCC3)no2)cc1
11,797,Cn1c(=O)c2cc(C(=O)Nc3ccc(F)cc3Cl)sc2n(C)c1=O
12,636,COCC(=O)NC1CCC12CCN(C(=O)C(C)C)CC2 (stereo not drawn)
13,745,CCC(=O)N1CCc2cc(N3CC(C(=O)NCc4cccc(C)c4)CC3=O)ccc21 (stereo not drawn)
14,863,Cc1nc(-c2cn(C)c3ncccc23)sc1C(=O)NCc1ccccc1
15,893,O=C(C1CCN(c2nc3ccc(-c4ccsc4)nc3s2)CC1)N1CCCC1
16,948,Cc1nc2cc(-c3noc(-c4ccccc4Br)n3)ccc2n(C)c1=O
17,753,Cc1ccc(NC(=O)Cc2cccc3ccccc23)cc1N1CCCC1=O
18,789,CCOC(=O)CNC(=O)N(C)CCc1noc(-c2ccc(Cl)cc2)n1
19,651,CN(C)C(=O)COC(=O)Cc1ccc(OC(=O)c2ccc(N=C(N)N)cc2)cc1
20,655,Cc1nc(CNC(=O)[C@H]2CCCN2S(=O)(=O)c2ccc3c(c2)oc(=O)n3C)cs1
21,704,COC(=O)Cn1c(C2CC(=O)N(c3ccccc3C)C2)nc2ccccc21 (stereo not drawn)
22,894,O=c1ncn2nc(Sc3ccc(F)cc3F)ccc2c1-c1c(Cl)cccc1Cl
23,1000,Cc1cccc(C(=O)Nc2cc(-c3cccs3)no2)c1
24,824,CCn1c(=O)c(C(=O)NCc2ccccc2F)nc2cccnc21
25,624,CCOC(=O)c1c(C)c(CCC(=O)NCCN2CCCCC2)n(C)c1C
26,811,O=C(NCCCn1c(C(F)(F)F)nc2cccnc21)Nc1cccc(F)c1
27,556,Cc1ccc(NC(=O)Cn2c(NCCN3CCOCC3)nc3ccccc32)cc1
